Source: US7935525B2, “Inhibition of ATF2 activity to treat cancer” (Mount Sinai School of Medicine, priority 2001, dated 2011)
No end group written: not given here.

Experiments:
FEMX tumor cells = experiment: Growth of transplanted FEMX tumors in mice; format: in vivo; conditions: single agent: UCN-01 by gavage, or peptide expressed in tumor cells
Experimental: (§1) Tumor growth and metastasis evaluation in vivo. Cell lines established in culture to constitutively or inducibly express the peptide were injected into mice subcutaneously (S.C.). LU1205, FEMX and SW-1 cells that expressed control or peptide II were trypsinized, resuspended in PBS and injected SC (1×10^6) into 6-7 week old mice in the lower flank. When the tumor reached the size of about 50 mm^3, 5 μM of SB203580 was injected into four areas of the LU1205 tumors every 4 days during a 2-week period. For FEMX tumors UCN-01 (2.5 mg/kg) was fed by gavage twice a day, three times per week for a total of 2 weeks. Tumor growth was monitored every two days. SW-1 cells expressing peptide II under tet-inducible vector were injected SC (1×10^6). When tumors reached a size of about 50 mm^3, the mice received doxycycline in their drinking water ([…]) for a total of 2-4 weeks. At the end of the experiment, the tumors were excised and weighed. The lungs and other organs were subjected to histopathological examination to detect metastatic lesions.

FEMX melanoma cell line = experiment: Colony forming efficiency (CFE) resistance assay; format: cell-based, human; conditions: peptide-expressing FEMX vs neo control; UV-treatment; 14 days
Experimental: (§2) Radiation resistance. Cells (500 or 1500 per well) were plated in triplicates on 6 well plates, 24 h before treatment (Ronai et al., Oncogene 1998; 16:523-531). In all cases, plating efficiency was pre-determined so that number of cell plated was normalized respectively. Colonies (greater than 50 cells per clone) were stained with crystal violet solution (3% in 10% methanol and PBS), 14 days After treatment. % of CFE in each treatment group was calculated based on total CFE formed in the respective controls (100%).

[1] = test system: LU1205 melanoma cell line; experiment: Colony forming efficiency (CFE) resistance assay; format: cell-based, human
Experimental: as §2

LU1205 cells = experiment: Apoptosis by FACS (hypodiploid fraction); format: cell-based, human; parameters: Adriamycin induced programmed cell death, increase compared with control: dose or concentration left out as unconfirmed
Experimental: (§3) Treatment and apoptosis studies of stably transfected melanoma cells. Cells were exposed to UVC at 75 J/m^2 as previously described (Ronai, Z., et al., Oncogene 1998; 16:523-531). SB203580 (1-10 μM) (Calbiochem®, San Diego, Calif.), NCS (50-100 ng/ml) and mitomycin C (MMC) (0.2-1 μM) were used to treat melanoma cells. Flow cytometric analysis was performed on a FACSCalibur™ flow cytometer (Becton Dickinson) using CellQuest™ software as described previously (Nicoletti et al., J. Immunol. Methods 1991; 139:271-279). Cells were pelleted and resuspended in 0.5 ml of hypotonic buffer with 0.1% Triton X-100 containing PI (40 μg/ml) and DNase-free RNase A (1 mg/ml). Cells were incubated at 37° C. for 30 min and analyzed on a FACSCalibur™ flow cytometer (Becton Dickinson). The percentage of cells to the left of the diploid G0/1 peak, characteristic of hypodiploid cells that have lost DNA, was defined as the percentage of apoptotic cells. Analysis was performed with light scatter gating. Surface expression of Fas was determined using anti-Fas-PE antibody (PharMingen® CA) and flow cytometric analysis. Cell surface expression is measured as mean fluorescence intensity (MFI).

[2] = test system: Adriamycin-resistant MCF7 cell line (MCF7-Adr); experiment: Apoptosis by FACS (hypodiploid fraction); format: cell-based, human; conditions: peptide-expressing MCF7-Adr; neo controls 3-fold; 36 h
Experimental: [Worded in the source for another cell line; this cell line is reported under the same test.] as §3

FEMX cells = experiment: Apoptosis by FACS (hypodiploid fraction); format: cell-based, human; conditions: peptide-expressing FEMX; UV-C 75 J/m2; 36 h; neo control 13%
Experimental: as §3

[3] = test system: MCF7 breast cancer-derived cell line; experiment: Apoptosis by FACS (hypodiploid fraction); format: cell-based, human; conditions: peptide-expressing MCF7; UV; 36 h
Experimental: [Worded in the source for another cell line; this cell line is reported under the same test.] as §3

[4] = test system: WM1552 early-phase melanoma cell line; experiment: Apoptosis by FACS (hypodiploid fraction); format: cell-based, human; conditions: peptide-expressing WM1552; UV-C 75 J/m2; 36 h
Experimental: as §3

[5] = test system: 293T human kidney embryonic cells; experiment: Apoptosis by FACS (hypodiploid fraction); format: cell-based; conditions: peptide-expressing 293T; normal growth conditions
Experimental: [Worded in the source for another cell line; this cell line is reported under the same test.] as §3

Fas = experiment: Cell surface expression of Fas by FACS; format: cell-based, human; conditions: peptide-expressing LU1205; control 122
Experimental: as §3

Fas promoter = Fas promoter activity (-460 Fas promoter region); format: cell-based, human; conditions: peptide-expressing LU1205
ATF2 [6] = experiment: ATF2 phosphorylation in peptide-expressing melanoma cells; format: cell-based, human; conditions: UV-treated; vs control vector cells
[7] = test system: ATF2 transcriptional output; experiment: Jun-2-Luc activities in peptide IV-expressing cells; format: cell-based
[8] = test system: human melanocytes (FOM71); experiment: Apoptosis by FACS (hypodiploid fraction); format: cell-based; conditions: melanocytes; SB203580 or NCS (100 ng/ml); 36 h
Experimental: as §3

LU1205 tumor cells = experiment: Growth of transplanted LU1205 tumors in mice; format: in vivo; conditions: single agent: inhibitor injected into tumor, or peptide expressed in tumor cells
Experimental: as §1

ATF2 [9] = experiment: GST binding assay; conditions: GST pull-down
Experimental: (§4) Electrophoretic mobility shift assays were performed as described. (Ivanov and Ronada, J Biol Chem 1999; 274(20):14079-89). GST binding assays were performed with GST-peptide II as described (Adler et al., Proc Natl Acad Sci USA 1995; 92 10585-9). SW1 cells expressing control vector or peptide II were subjected to FACS analysis following their incubation with antibodies to the cell surface receptor of FAS as described above.

JNK = experiment: GST binding assay; conditions: GST pull-down; greater binding in extracts of UV-treated cells
Experimental: as §4

Question: `CN[C@@H]1C[C@H]2O[C@@](C)([C@@H]1OC)n1c3ccccc3c3c4c(c5c6ccccc6n2c5c31)C(=O)N[C@H]4O` [UCN-01, 7-hydroxystaurosporine, reference compound] was tested. Which tumor cell growth (FEMX tumor cells) did it give?
Answer: The tumor cell growth was “little effect, if any”.

Question: Which “increase in the % of CFE” value (FEMX melanoma cell line) does the source give for “peptide IV: ATF2 peptide of amino acid residues 150-200, expressed from pcDNA3 with HA-penetratin tag (EVPLAQTAQPTSAIVRPASLQVPNVLLTSSDSSVIIQQAVPSPTSSTVITQ; not fully specified; also: HA-penetratin tag, position not given here; UniProt P15336 150-200, looked up, fragment)” here?
Answer: Its value is no more than 2.5 fold.

Question: What about the “increase in the resistance to NCS (CFE)” value ([1]; peptide-expressing LU1205, low dose of NCS) of the same molecule?
Answer: The value was roughly 2 fold.

Question: And the “increase in the % of CFE” value ([1]; peptide-expressing LU1205 vs neo control, UV-treatment, 14 days)?
Answer: Its value is no more than 2.5 fold.

Question: What about the “increase in degree of apoptosis over control neo cells given Adriamycin and verapamil” value (LU1205 cells; peptide-expressing LU1205, Adriamycin + verapamil) of the same molecule?
Answer: The value was 70%.

Question: And the “apoptotic fraction of UV-treated cells” value (LU1205 cells; peptide-expressing LU1205, UV-C 75 J/m2, 36 h, neo control 15%)?
Answer: The value was 10%.

Question: What about the “increase in the degree of cell death” value (LU1205 cells; peptide-expressing LU1205, higher doses (10 μM) of SB203580, 36 h) of the same molecule?
Answer: The value was 2 fold.

Question: And the “increase in cell death” value (LU1205 cells; peptide-expressing LU1205, low doses of SB203580, 36 h)?
Answer: The value was “did not alter the degree of cell death”.

Question: And the “increase in apoptosis following UV-treatment” value [2]?
Answer: The value was “greater than 4 fold”.

Question: And the “apoptotic fraction of UV-treated cells” value (FEMX cells)?
Answer: The value was 8%.

Question: And the “decrease in the degree of apoptosis after UV-treatment compared with MCF7 neo control cells” value [3]?
Answer: The value was 5 fold.

Question: What about the “sensitization to UV-induced apoptosis” value [4] of the same molecule?
Answer: Its value is “did not cause higher level of apoptosis”.

Question: What about the “increase in the degree of basal apoptosis” value [5] of the same molecule?
Answer: Its value is 15 fold.

Question: What about the “cell surface expression of Fas, mean fluorescence intensity” value (Fas) of the same molecule?
Answer: Its value is “did not cause major changes”.

Question: What about the “Fas promoter mediated transcription” value (Fas promoter) of the same molecule?
Answer: Its value is “decrease in Fas promoter mediated transcription”.

Question: And the “ATF2 phosphorylation after UV-treatment” value (ATF2 [6])?
Answer: The value was “higher degree of increase in ATF2 phosphorylation”.

Question: What about the “transcriptional output measured via Jun-2-Luc activities” value [7] of the same molecule?
Answer: Its value is “elevated transcriptional output”.

Question: For `COc1cccc2c1C(=O)c1c(O)c3c(c(O)c1C2=O)C[C@@](O)(C(=O)CO)C[C@@H]3O[C@H]1C[C@H](N)[C@H](O)[C@H](C)O1` [Adriamycin®, reference compound], which “Adriamycin induced programmed cell death, increase compared with control” value (LU1205 cells; LU1205, ADR alone) is on record?
Answer: Its value is 2 fold.

Question: neocarzinostatin [NCS] was tested. Which “changes in degree of apoptosis” value [8] did it give?
Answer: Its value is “neither NCS nor SB203580 elicited any significant changes”.

Question: How did the “changes in degree of apoptosis” value [8] turn out when `C[S+]([O-])c1ccc(-c2nc(-c3ccncc3)c(-c3ccc(F)cc3)[nH]2)cc1` (centres unmarked) [SB203580, reference compound] was run?
Answer: Its value is “neither NCS nor SB203580 elicited any significant changes”.

Question: And the tumor cell growth (LU1205 tumor cells)?
Answer: The tumor cell growth was “almost no effect”.

B1: amino acid residues 1-115: larger region of the amino-terminal ATF2 domain (amino acid residues 1-115) (protein, UniProt P15336 1-115, looked up, fragment)
chain: MKFKLHVNSARQYKDLWNMSDDKPFLCTAPGCGQRFTNEDHLAVHKHKHEMTLKFGPARNDSVIVADQTPTPTRFLKNCEEVGLFNELASPFENEFKKASEDDIKKMPLDLSPLA
Question: What does the source list for B1?
Answer: association with ATF2 (ATF2 [9]): weaker association; association with JNK (JNK): equivalent association
